The test system of the assay is SCD-Selp−/− mice. Briefly: qFILM detection of circulating NETs arriving in the lung microcirculation, SCD-Selp−/− mice. It counts as in vivo, mouse. To be noted: IV 10 μmole/kg oxy-Hb with 10 mg/kg inhibitor vs oxy-Hb alone, significant. As for the experimental part: (FIG. 5A) Experimental scheme: SCD or SCD-Selp^−/− mice were IV administered 10 μmole/kg oxy-Hb (10 oxy-Hb) without or with 10 mg/kg GSDMD inhibitors LDC75591 or Disulfiram. In FIGS. 5C-5D, venous blood was processed to generate PPP and cNETs detected in PPP using Imaging Flow Cytometry. Imaging Flow Cytometry data was quantified to estimate concentration of cNETs (#cNETs/μl of plasma). In FIGS. 5B, and 5E-5F, quantitative fluorescence intravital lung microscopy (qFILM) was used to detect arrival of circulating NETs (cNETs) within the lung microcirculation. Number of cNETs entering per FOV over a 1-minute duration (#cNETs/FOV/min) were quantified. In FIGS. 5G-5J, qFILM was used to assess the absence or presence of pulmonary vaso-occlusion using the experimental strategy described in FIG. 1A. Pulmonary vaso-occlusions (PVOs) were compared between treatment groups using following two parameters: Number of PVOs per Field of View (#PVOs/FOV) and number of large PVOs (with area>1000 μm^2) per FOV. […]
Quantitative fluorescence intravital lung microscopy (qFILM) has been used widely for in vivo assessment of pulmonary vasoocclusion in mice with SCD [Bennewitz M F et al., (2017); Vats R, Brzoska T, Bennewitz M F, et al. (2020); Vats R, Tutuncuoglu E, Pradhan-Sundd T, Tejero J, Shaw G D, Sundd P. (2020); Bennewitz M F, Tutuncuoglu E, Gudapati S, et al. (2020)] […]

As for `COc1ccccc1-c1cc2n(n1)Cc1ccc(NC(C)=O)cc1OC2` [LDC7559], the “#cNETs/FOV/min in the lung, less than 10 oxy-Hb alone” value was 4 folds.

The values above are taken from patent US20240358721A1, “GASDERMIN-D INHIBITORS AND USES THEREOF FOR TREATING PULMONARY VASO-OCCLUSION” (UNIVERSITY OF PITTSBURGH-OF THE COMMONWEALTH SYSTEM OF …, priority 2021, published 2024).
